# Literature values in US12582632B2, “Inhibition of neurological injuries due to infections via administration of Butanetap and analogs thereof” (priority 2021, dated 2026).
# Details: 3 phase 3 clinical studies, failed; cited from earlier work
structure (smiles),measurement,value
"CN1CC[C@@]2(C)c3cc(OC(=O)Nc4ccccc4)ccc3N(C)[C@@H]12 [Phenserine, (−)-N-phenylcarbamoyl eseroline]",side effects in clinical studies,high cholinomimetic side effects
